According to patent US9701664B2, “Fused 1,4-dihydrodioxin derivatives as inhibitors of heat shock transcription factor 1” (Cancer Research Technology Limited, priority 2013, dated 2017):
Where two headings read alike, the source gives them in different places.

Key:
[1] = test system: HSP72 in U2OS cells; assay: Cell-based ELISA (Cellisa) assay, U2OS cells: inhibition of 17-AAG-induced HSP72; conditions: U2OS cells (Examples 1-168)
[2] = test system: U2OS cells; assay: Titre Blue cell viability assay, U2OS cells; type: cell-based

IC50 [1] [nM] | IC50 [2] [nM] | Compound | IC50 ([1]; Homo sapiens) [nM] | IC50 ([2]; Homo sapiens, U2OS) [nM]
– | – | O=C(Nc1ccc(Br)c(NC(=O)c2ccc3nc(OCCN4CCCC4)ccc3c2)c1)c1ccc2c(c1)OCCO2 [Example 139, N-(2-bromo-5-(2,3-dihydrobenzo[b][1,4]dioxine-6-carboxamido)phenyl)-2-(2-(pyrrolidin-1-yl)ethoxy)quinoline-6-carboxamide] | 20 | 23
5 | 1 | N-(5-amino-2-((dimethylamino)methyl)phenyl)-2-methylquinoline-6-carboxamide [Example 165] | – | –
– | – | Cc1ccc(NC(=O)c2ccc3c(c2)OCCO3)cc1NC(=O)c1ccc2nc(COCC(C)C)ccc2c1 [Example 151, N-(5-(2,3-dihydrobenzo[b][1,4]dioxine-6-carboxamido)-2-methylphenyl)-2-(isobutoxymethyl)quinoline-6-carboxamide] | 100 | 26
– | – | COc1cc(C(=O)Nc2cc(NC(=O)c3ccc4c(c3)OCCO4)ccc2C)ccc1Br [Example 41, N-(3-(4-bromo-3-methoxybenzamido)-4-methylphenyl)-2,3-dihydrobenzo[b][1,4]dioxine-6-carboxamide] | 104 | 154
– | – | Cc1ccc(NC(=O)c2ccc3c(c2)OCCO3)cc1NC(=O)c1ccc2nc(OCCN(C)C)ccc2c1 [Example 62, N-(5-(2,3-dihydrobenzo[b][1,4]dioxine-6-carboxamido)-2-methylphenyl)-2-(2-(dimethylamino)ethoxy)quinoline-6-carboxamide] | 17 | 16
1540 | 859 | tert-butyl (44(64(5-(2,3-dihydrobenzo[b][1,4]dioxine-6-carboxamido)-2-methylphenyl)carbamoyl)quinolin-2-yl)oxy)butyl)carbamate [Example 164] | – | –
– | – | COCc1ccc(NC(=O)c2ccc3c(c2)OCCO3)cc1NC(=O)c1ccc2nc(C)ccc2c1 [Example 166, N-(5-(2,3-dihydrobenzo[b][1,4]dioxine-6-carboxamido)-2-(methoxymethyl)phenyl)-2-methylquinoline-6-carboxamide] | 298 | 68
– | – | Cc1ccc(NC(=O)c2ccc3c(c2)OCCO3)cc1NC(=O)c1ccc2nc(CCN3CCOCC3)ccc2c1 [Example 144, N-(5-(2,3-dihydrobenzo[b][1,4]dioxine-6-carboxamido)-2-methylphenyl)-2-(2-morpholinoethyl)quinoline-6-carboxamide] | 60 | 80
– | – | Cc1ccc(NC(=O)c2ccc3c(c2)OCCO3)cc1NC(=O)c1ccc2[nH]ncc2c1 [Example 97, N-(5-(2,3-dihydrobenzo[b][1,4]dioxine-6-carboxamido)-2-methylphenyl)-1H-indazole-5-carboxamide] | 59 | 32
– | – | Cc1ccc(NC(=O)c2ccc3c(c2)OCCO3)cc1NC(=O)c1ccc2[nH]c(=O)ccc2c1 [Example 48, N-(5-(2,3-dihydrobenzo[b][1,4]dioxine-6-carboxamido)-2-methylphenyl)-2-oxo-1,2-dihydroquinoline-6-carboxamide] | 141 | 172
– | – | CCc1ccc(NC(=O)c2ccc3c(c2)OCCO3)cc1NC(=O)c1ccc2ncccc2c1 [Example 133, N-(5-(2,3-dihydrobenzo[b][1,4]dioxine-6-carboxamido)-2-ethylphenyl)quinoline-6-carboxamide] | 127 | 111
– | – | Cc1ccc(NC(=O)c2ccc3c(c2)OCCO3)cc1NC(=O)c1cnc2ccncc2c1 [Example 43, N-(5-(2,3-dihydrobenzo[b][1,4]dioxine-6-carboxamido)-2-methylphenyl)-1,6-naphthyridine-3-carboxamide] | 22 | 34
– | – | Cc1ccc(NC(=O)c2ccc3c(c2)OCCO3)cc1NC(=O)c1ccc2nc(CN3CCN(C)CC3)ccc2c1 [Example 70, N-(5-(2,3-dihydrobenzo[b][1,4]dioxine-6-carboxamido)-2-methylphenyl)-2-((4-methylpiperazin-1-yl)methyl)quinoline-6-carboxamide] | 59 | 92
– | – | Cc1cc2cc(C(=O)Nc3cc(NC(=O)c4ccc5c(c4)OCCO5)ccc3C)cnc2[nH]1 [Example 99, N-(5-(2,3-dihydrobenzo[b][1,4]dioxine-6-carboxamido)-2-methylphenyl)-2-methyl-1H-pyrrolo[2,3-b]pyridine-5-carboxamide] | 42 | 62
– | – | Cc1ccc(NC(=O)c2ccc3c(c2)OCCO3)cc1NC(=O)c1cnc2cccc(CCN3CCCC3)c2c1 [Example 158, N-(5-(2,3-dihydrobenzo[b][1,4]dioxine-6-carboxamido)-2-methylphenyl)-5-(2-(pyrrolidin-1-yl)ethyl)quinoline-3-carboxamide] | 239 | 202
– | – | Cc1ccc(NC(=O)c2ccc3c(c2)OCCO3)cc1NC(=O)c1ccc2nc(N(C)CCN3CCCC3)ccc2c1 [Example 64, N-(5-(2,3-dihydrobenzo[b][1,4]dioxine-6-carboxamido)-2-methylphenyl)-2-(methyl(2-(pyrrolidin-1-yl)ethyl)amino)quinoline-6-carboxamide] | 25 | 32

IC50 [1] [nM] | IC50 [2] [nM] | Compound | IC50 ([1]; Homo sapiens) [nM] | IC50 ([2]; Homo sapiens, U2OS) [nM]
– | – | O=C(Nc1ccc(Cl)c(NC(=O)c2ccc3ncccc3c2)c1)c1ccc2c(c1)OCCO2 [Example 149, N-(2-chloro-5-(2,3-dihydrobenzo[b][1,4]dioxine-6-carboxamido)phenyl)quinoline-6-carboxamide] | 63 | 20
– | – | Cc1ccc(NC(=O)c2ccc3c(c2)OCCO3)cc1NC(=O)c1ccc2c(c1)CS(=O)(=O)N2C [Example 168, N-(5-(2,3-dihydrobenzo[b][1,4]dioxine-6-carboxamido)-2-methylphenyl)-1-methyl-1,3-dihydrobenzo[c]isothiazole-5-carboxamide 2,2-dioxide] | 14 | 19
– | – | Cc1ccc(NC(=O)c2ccc3c(c2)OCCO3)cc1NC(=O)c1ccc(O)cc1 [Example 93, N-(3-(4-hydroxybenzamido)-4-methylphenyl)-2,3-dihydrobenzo[b][1,4]dioxine-6-carboxamide] | 2460 | 798
– | – | Cc1ccc(NC(=O)c2ccc3c(c2)OCCO3)cc1NC(=O)c1ccc(OCc2ccccn2)cc1 [Example 19, N-(4-methyl-3-(4-(pyridin-2-ylmethoxy)benzamido)phenyl)-2,3-dihydrobenzo[b][1,4]dioxine-6-carboxamide] | 289 | 320
– | – | Cc1ccc(NC(=O)c2ccc3c(c2)OCCO3)cc1NC(=O)c1ccc(OCc2cscn2)nc1 [Example 13, N-(5-(2,3-dihydrobenzo[b][1,4]dioxine-6-carboxamido)-2-methylphenyl)-6-(thiazol-4-ylmethoxy)nicotinamide] | 262 | 217
– | – | COc1ccc(C(=O)Nc2cc(NC(=O)c3ccc4c(c3)OCCO4)ccc2C)cc1Cl [Example 28, N-(3-(3-chloro-4-methoxybenzamido)-4-methylphenyl)-2,3-dihydrobenzo[b][1,4]dioxine-6-carboxamide] | 416 | 415
– | – | Cc1ccc(NC(=O)c2cnc3c(c2)OCCO3)cc1NC(=O)c1ccc2nc(OCCN3CCCC3)ccc2c1 [Example 134, N-(4-methyl-3-(2-(2-(pyrrolidin-1-yl)ethoxy)quinoline-6-carboxamido)phenyl)-2,3-dihydro-[1,4]dioxino[2,3-b]pyridine-7-carboxamide] | 51 | 49
– | – | Cc1ccc2cc(C(=O)Nc3cc(NC(=O)c4cnc5c(c4)OCCO5)ccc3C)ccc2n1 [Example 135, N-(4-methyl-3-(2-methylquinoline-6-carboxamido)phenyl)-2,3-dihydro-[1,4]dioxino[2,3-b]pyridine-7-carboxamide] | 27 | 29
– | – | Cc1ccc(NC(=O)c2ccc3c(c2)OCCO3)cc1NC(=O)c1ccc2nc(N)sc2c1 [Example 91, 2-amino-N-(5-(2,3-dihydrobenzo[b][1,4]dioxine-6-carboxamido)-2-methylphenyl)benzo[d]thiazole-6-carboxamide] | 70 | 115
– | – | COc1ccc(C(=O)Nc2cc(NC(=O)c3ccc4c(c3)OCCO4)ccc2C)cc1OC [Example 5, N-(3-(3,4-dimethoxybenzamido)-4-methylphenyl)-2,3-dihydrobenzo[b][1,4]dioxine-6-carboxamide] | 53 | 47
– | – | C=CCc1cccc2ncc(C(=O)Nc3cc(NC(=O)c4ccc5c(c4)OCCO5)ccc3C)cc12 [Example 161, 5-allyl-N-(5-(2,3-dihydrobenzo[b][1,4]dioxine-6-carboxamido)-2-methylphenyl)quinoline-3-carboxamide] | 911 | 557
– | – | Cc1ccc(NC(=O)c2ccc3c(c2)OCCO3)cc1NC(=O)c1ccc2nc(COCC3CCCO3)ccc2c1 (stereo not shown) [Example 146, N-(5-(2,3-dihydrobenzo[b][1,4]dioxine-6-carboxamido)-2-methylphenyl)-2-(((tetrahydrofuran-2-yl)methoxy)methyl)quinoline-6-carboxamide] | 77 | 20
– | – | Cc1ccc(NC(=O)c2ccc3c(c2)OCCO3)cc1NC(=O)c1ccc2c(c1)CCN2C [Example 7, N-(5-(2,3-dihydrobenzo[b][1,4]dioxine-6-carboxamido)-2-methylphenyl)-1-methylindoline-5-carboxamide] | 55 | 37
– | – | Cc1ccc(NC(=O)c2ccc3c(c2)OCCO3)cc1NC(=O)c1cnc2ccccc2c1 [Example 47, N-(5-(2,3-dihydrobenzo[b][1,4]dioxine-6-carboxamido)-2-methylphenyl)quinoline-3-carboxamide] | 4 | 12
– | – | Cc1ccc(NC(=O)c2ccc3c(c2)OCCO3)cc1NC(=O)c1ccc2nc(OC[C@@H]3CCCN3C)ccc2c1 [Example 53, (S)—N-(5-(2,3-dihydrobenzo[b][1,4]dioxine-6-carboxamido)-2-methylphenyl)-2-((1-methylpyrrolidin-2-yl)methoxy)quinoline-6-carboxamide] | 7 | 7

Compound | IC50 [1] [nM] | IC50 [2] [nM] | IC50 ([1]; Homo sapiens) [nM] | IC50 ([2]; Homo sapiens, U2OS) [nM]
N-(5-(2,3-dihydrobenzo[b][1,4]dioxine-6-carboxamido)-2-methylphenyl)-34(2-methoxyethyl)amino)-2-(2-(pyrrolidin-1-yl)ethoxy)quinoline-6-carboxamide [Example 150] | 98 | 86 | – | –
